Reference: patent US20260062422A1 (Halda Therapeutics OpCo, Inc., priority 2022, published 2026)

Assays:
[1] = test system: T-Rex 293 cell line SC3 cells having increased expression of androgen receptor protein due to exposure to doxycycline; experiment: Cellular growth inhibition, T-Rex 293 SC3 cells with doxycycline (androgen receptor induced), CellTiter-Glo; type: cell-based; conditions: T-Rex 293 SC3 cells with 10 ng/mL doxycycline (increased androgen receptor expression)
Procedure, shortened: (§1)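 Luminescence read-out (CellTiter-Glo 2.0) after 72 h compound exposure; GI50 by four-parameter nonlinear regression, baseline set at zero luminescence. SC3 cells, a doxycycline-inducible wild-type AR clone of T-Rex 293, were cultured ±10 ng/mL doxycycline in charcoal-dextran FBS medium.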

[2] = test system: T-Rex 293 cell line SC3 cells lacking increased expression of androgen receptor protein; experiment: Cellular growth inhibition, T-Rex 293 SC3 cells without doxycycline, CellTiter-Glo; type: cell-based; conditions: T-Rex 293 SC3 cells not exposed to doxycycline, CellTiter-Glo 2.0
Procedure, shortened: as §1

T47D cells = experiment: Cellular growth inhibition assay for T47D cells, CellTiter-Glo; type: cell-based, human; conditions: Homo sapiens, T47D, 72 h, 72 hours treatment, CellTiter-Glo 2.0 cell viability
Procedure, shortened: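 Cells are plated at 3000/well and allowed 24 h before treatment. Test compound in medium containing 0.5% DMSO is then added, with DMSO-only wells as negative control, and plates are incubated 72 h at 37 °C. ATP luminescence (CellTiter-Glo 2.0) is then fitted to four parameters to derive GI50.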

VCaP cells = experiment: Cellular growth inhibition assay for VCaP cells, CellTiter-Glo; type: cell-based, human; conditions: Homo sapiens, VCaP, 72 h, 72 hours treatment, CellTiter-Glo 2.0
Procedure, shortened: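 GI50 values come from four-parameter curve fits of luminescence data normalized to a zero baseline. Compound, in medium with 0.5% DMSO, was added one day after plating and left for 72 h before CellTiter-Glo 2.0 addition.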

| Structure (SMILES) | GI50 (T47D cells) [nM] | GI50 (VCaP cells) [nM] | GI50 ([1]; 72 h) [nM] | GI50 ([2]; 72 h) [nM] | GI50 ([1]; 72 hours) [nM] | GI50 ([2]; 72 hours) [nM] |
| --- | --- | --- | --- | --- | --- | --- |
| Cc1sc2c(c1C)C(c1ccc(NCC3CCCCN3c3ncc(C(=O)N[C@H]4C(C)(C)[C@H](Oc5ccc(C#N)c(Cl)c5)C4(C)C)cn3)cc1)=NC(Cc1ncco1)c1nnc(C)n1-2 (stereo partly shown) [Compound I-638] | < 500 | < 500 | < 500 | < 500 | – | – |
| Cc1sc2c(c1C)C(c1ccc(C3(C4CC5(CCN(c6ncc(C(=O)N[C@H]7C(C)(C)[C@H](Oc8ccc(C#N)c(Cl)c8)C7(C)C)cn6)CC5)C4)CC3)cc1)=N[C@@H](Cc1ncco1)c1nnc(C)n1-2 [Compound I-525] | < 500 | < 500 | < 500 | > 3000 | – | – |
| Cc1sc2c(c1C)C(c1ccc(C[C@H]3CC[C@@]4(C3)CN(c3ncc(C(=O)N[C@H]5C(C)(C)[C@H](Oc6ccc(C#N)c(Cl)c6)C5(C)C)cn3)CCO4)cc1)=N[C@@H](Cc1ncco1)c1nnc(C)n1-2 [Compound I-311] | < 500 | < 500 | < 500 | < 500 | – | – |
| Cc1sc2c(c1C)C(c1ccc(N3CC4(CCC(Cc5ncc(C(=O)N[C@H]6C(C)(C)[C@H](Oc7ccc(C#N)c(Cl)c7)C6(C)C)cn5)CC4)C3)cc1)=N[C@@H](Cc1ncco1)c1nnc(C)n1-2 [Compound I-458] | < 500 | < 500 | < 500 | < 500 | – | – |
| Cc1sc2c(c1C)C(c1ccc(NCCC3CCCN(c4ncc(C(=O)N[C@H]5C(C)(C)[C@H](Oc6ccc(C#N)c(Cl)c6)C5(C)C)cn4)C3)cc1)=N[C@@H](Cc1ncco1)c1nnc(C)n1-2 (stereo partly shown) [Compound I-652] | < 500 | < 500 | < 500 | < 500 | – | – |
| [2H]C([2H])(c1ccc(C2=N[C@@H](Cc3ncco3)c3nnc(C)n3-c3sc(C)c(C)c32)cc1)N1CC[C@]2(CCCN(c3ncc(C(=O)N[C@H]4C(C)(C)[C@H](Oc5ccc(C#N)c(Cl)c5)C4(C)C)cn3)C2)C1 [Compound I-434] | < 500 | < 500 | < 500 | > 3000 | – | – |
| Cc1sc2c(c1C)C(c1ccc(CN(C)C(=O)NCc3ncc(C(=O)N[C@H]4C(C)(C)[C@H](Oc5ccc(C#N)c(Cl)c5)C4(C)C)cn3)cc1)=N[C@@H](Cc1ncco1)c1nnc(C)n1-2 [Compound I-361] | 1500 to 3000 | 1500 to 3000 | > 3000 | > 3000 | – | – |
| Cc1sc2c(c1C)C(c1ccc(CC[C@H]3CCCC(c4ncc(C(=O)N[C@H]5C(C)(C)[C@H](Oc6ccc(C#N)c(Cl)c6)C5(C)C)cn4)C3)cc1)=N[C@@H](Cc1ncco1)c1nnc(C)n1-2 (stereo partly shown) [Compound I-298] | < 500 | < 500 | < 500 | < 500 | – | – |
| Cc1sc2c(c1C)C(c1ccc(C(=O)N3CCN(Cc4ncc(C(=O)N[C@H]5C(C)(C)[C@H](Oc6ccc(C#N)c(Cl)c6)C5(C)C)cn4)CC3)cc1)=N[C@H](Cc1ncco1)c1nnc(C)n1-2 [Compound I-328] | 1500 to 3000 | > 3000 | 1500 to 3000 | > 3000 | – | – |
| Cc1sc2c(c1C)C(c1ccc(OC3CC4(CCN(c5ncc(C(=O)N[C@H]6C(C)(C)[C@H](Oc7ccc(C#N)c(Cl)c7)C6(C)C)cn5)CC4)C3)cc1)=N[C@](C)(C(C)c1ncco1)c1nnc(C)n1-2 (stereo partly shown) [Compound I-273] | > 3000 | > 3000 | < 500 | > 3000 | – | – |
| Cc1sc2c(c1C)C(c1ccc([C@H]3CCCCN3C(=O)[C@H]3CCCN(c4ncc(C(=O)N[C@H]5C(C)(C)[C@@H](Oc6ccc(C#N)c(Cl)c6)C5(C)C)cn4)C3)cc1)=N[C@@H](Cc1ncco1)c1nnc(C)n1-2 [Compound I-359] | > 3000 | < 500 | < 500 | > 3000 | – | – |
| Cc1sc2c(c1C)C(c1ccc(C3CC(CC4CN(c5ncc(C(=O)N[C@H]6C(C)(C)[C@H](Oc7ccc(C#N)c(Cl)c7)C6(C)C)cn5)C4)C3)cc1)=NC(Cc1ncco1)c1nnc(C)n1-2 (stereo partly shown) [Compound I-476] | < 500 | < 500 | < 500 | < 500 | – | – |
| Cc1sc2c(c1C)C(c1ccc(N3C4CCC3CN(c3ncc(C(=O)N[C@H]5C(C)(C)[C@H](Oc6ccc(C#N)c(Cl)c6)C5(C)C)cn3)C4)cc1)=N[C@@H](Cc1ncco1)c1nnc(C)n1-2 [Compound I-635] | < 500 | < 500 | – | – | < 500 | < 500 |
| Cc1sc2c(c1C)C(c1ccc(O[C@H]3CCOC34CN(c3ncc(C(=O)N[C@H]5C(C)(C)[C@H](Oc6ccc(C#N)c(Cl)c6)C5(C)C)cn3)C4)cc1)=N[C@@H](Cc1ncco1)c1nnc(C)n1-2 [Compound I-183] | 500 to 1500 | < 500 | < 500 | < 500 | – | – |
| Cc1sc2c(c1C)C(c1ccc(O[C@H]3C[C@@]4(CCCN(c5ncc(C(=O)N[C@H]6C(C)(C)[C@H](Oc7ccc(C#N)c(Cl)c7)C6(C)C)cn5)C4)C3)cc1)=N[C@@H](Cc1ncco1)c1nnc(C)n1-2 [Compound I-193] | < 500 | 500 to 1500 | < 500 | 500 to 1500 | – | – |

Further lines, with some results ahead:

| GI50 (T47D cells) [nM] | GI50 (VCaP cells) [nM] | Structure (SMILES) | GI50 ([1]; 72 h) [nM] | GI50 ([2]; 72 h) [nM] | GI50 ([1]; 72 hours) [nM] | GI50 ([2]; 72 hours) [nM] |
| --- | --- | --- | --- | --- | --- | --- |
| > 3000 | > 3000 | Cc1sc2c(c1C)C(c1ccc(CCCOC3CCN(c4ncc(C(=O)N[C@H]5C(C)(C)[C@H](Oc6ccc(C#N)c(Cl)c6)C5(C)C)cn4)CC3)cc1)=N[C@@H](Cc1cnccn1)c1nnc(C)n1-2 [Compound I-277] | < 500 | > 3000 | – | – |
| < 500 | < 500 | Cc1sc2c(c1C)C(c1ccc(COC3CC4(CCCN(c5ncc(C(=O)N[C@H]6C(C)(C)[C@H](Oc7ccc(C#N)c(Cl)c7)C6(C)C)cn5)C4)C3)cc1)=N[C@@H](C)c1nnc(C)n1-2 [Compound I-395] | < 500 | > 3000 | – | – |
| < 500 | < 500 | CCNC(=O)C[C@@H]1N=C(c2ccc(N3CC(OC4CCN(c5ncc(C(=O)N[C@H]6C(C)(C)[C@H](Oc7ccc(C#N)c(Cl)c7)C6(C)C)cn5)CC4)C3)cc2)c2c(sc(C)c2C)-n2c(C)nnc21 [Compound I-117] | < 500 | 500 to 1500 | – | – |
| < 500 | < 500 | Cc1sc2c(c1C)C(c1ccc(NC3CCCN(c4ncc(C(=O)N[C@H]5C(C)(C)[C@H](Oc6ccc(C#N)c(Cl)c6)C5(C)C)cn4)CC3)cc1)=NC(Cc1ncco1)c1nnc(C)n1-2 (stereo partly shown) [Compound I-640] | < 500 | 500 to 1500 | – | – |
| 500 to 1500 | 500 to 1500 | CCNC(=O)C[C@@H]1N=C(c2ccc(CCN(C)c3ncc(C(=O)N[C@H]4C(C)(C)[C@H](Oc5ccc(C#N)c(Cl)c5)C4(C)C)cn3)cc2)c2c(sc(C)c2C)-n2c(C)nnc21 [Compound I-103] | < 500 | 500 to 1500 | – | – |
| 500 to 1500 | < 500 | COCC[C@@H]1N=C(c2ccc(N3CC(CC4CCN(c5ncc(C(=O)N[C@H]6C(C)(C)[C@H](Oc7ccc(C#N)c(Cl)c7)C6(C)C)cn5)CC4)C3)cc2)c2c(sc(C)c2C)-n2c(C)nnc21 [Compound I-608] | < 500 | > 3000 | – | – |
| > 3000 | < 500 | COCC[C@@H]1N=C(c2ccc(OC3CC4(CCCN(c5ncc(C(=O)N[C@H]6C(C)(C)[C@@H](Oc7ccc(C#N)c(Cl)c7)C6(C)C)cn5)C4)C3)cc2)c2c(sc(C)c2C)-n2c(C)nnc21 [Compound I-569] | < 500 | > 3000 | – | – |
| < 500 | < 500 | Cc1sc2c(c1C)C(c1ccc(N3CCCC4(CCN(c5ncc(C(=O)N[C@H]6C(C)(C)[C@H](Oc7ccc(C#N)c(Cl)c7)C6(C)C)cn5)CC4)C3)cc1)=NC(Cc1ncco1)c1nnc(C)n1-2 (stereo partly shown) [Compound I-637] | < 500 | > 3000 | – | – |
| < 500 | < 500 | Cc1sc2c(c1C)C(c1ccc(NCC3CCN(c4ncc(C(=O)N[C@H]5C(C)(C)[C@H](Oc6ccc(C#N)c(Cl)c6)C5(C)C)cn4)CC3)cc1)=N[C@@H](Cc1ncco1)c1nnc(C)n1-2 [Compound I-636] | < 500 | < 500 | – | – |
| < 500 | > 3000 | Cc1sc2c(c1C)C(c1ccc(N3CC(CC4CCN(c5cnc(C(=O)N[C@H]6C(C)(C)[C@H](Oc7ccc(C#N)c(Cl)c7)C6(C)C)cn5)CC4)C3)cc1)=N[C@@H](C)c1nnc(C)n1-2 [Compound I-450] | 500 to 1500 | > 3000 | – | – |
| 1500 to 3000 | < 500 | COCC[C@@H]1N=C(c2ccc(N3CC(CC4CN(c5cnc(C(=O)N[C@H]6C(C)(C)[C@H](Oc7ccc(C#N)c(Cl)c7)C6(C)C)cn5)C4)C3)cc2)c2c(sc(C)c2C)-n2c(C)nnc21 [Compound I-611] | < 500 | < 500 | – | – |
| > 3000 | > 3000 | Cc1sc2c(c1C)C(c1ccc(N3CCC[C@H](C(=O)N4CCC[C@@H](c5ncc(C(=O)N[C@H]6C(C)(C)[C@H](Oc7ccc(C#N)c(Cl)c7)C6(C)C)cn5)C4)C3)cc1)=N[C@H](Cc1ncco1)c1nnc(C)n1-2 [Compound I-339] | > 3000 | > 3000 | – | – |
| < 500 | 500 to 1500 | CC[C@@H]1N=C(c2ccc(C#CC3CC4(C3)CN(c3ncc(C(=O)N[C@H]5C(C)(C)[C@H](Oc6ccc(C#N)c(Cl)c6)C5(C)C)cn3)C4)cc2)c2c(sc(C)c2C)-n2c(C)nnc21 [Compound I-576] | < 500 | 500 to 1500 | – | – |
